Measured values from the supplement of paper PMC5908809.

Legend:
[1] = tested on: DERL-7 (IL-2 2.5 ng/mL); test: percent inhibition of viability; higher = more inhibition; settings: 72 h
[2] = tested on: normal primary NK cells, pool 1 (3 donors), resting (IL-2 0 ng/mL); test: as above; settings: 72 h
[3] = tested on: KHYG-1 (IL-2 2.5 ng/mL); test: as above; settings: 72 h
[4] = tested on: normal primary NK cells, pool 2 (3 donors) (IL-2 2.5 ng/mL); test: as above; settings: 72 h
[5] = tested on: normal primary NK cells, pool 3 (3 donors) (IL-2 2.5 ng/mL); test: as above; settings: 72 h
[6] = tested on: NKL (IL-2 2.5 ng/mL); test: as above; settings: 72 h
[7] = tested on: KAI3 (IL-2 2.5 ng/mL); test: as above; settings: 72 h
[8] = tested on: normal primary NK cells, pool 1 (3 donors) (IL-2 2.5 ng/mL); test: as above; settings: 72 h
[9] = tested on: SNK-6 (IL-2 2.5 ng/mL); test: as above; settings: 72 h
[10] = tested on: NK-92 (IL-2 2.5 ng/mL); test: as above; settings: 72 h
[11] = tested on: NK-YS (IL-2 2.5 ng/mL); test: as above; settings: 72 h
[12] = tested on: YT (IL-2 2.5 ng/mL); test: as above; settings: 72 h
[13] = tested on: IMC-1 (IL-2 20 ng/mL); test: as above; settings: 72 h
[14] = tested on: DERL-7 (IL-2 2.5 ng/mL); test: drug sensitivity score (DSS) (DSS units); higher = more sensitive; extreme values may be limits of the assay; settings: 72 h
[15] = tested on: normal primary NK cells, pool 1 (3 donors), resting (IL-2 0 ng/mL); test: as above; settings: 72 h
[16] = tested on: KHYG-1 (IL-2 2.5 ng/mL); test: as above; settings: 72 h
[17] = tested on: normal primary NK cells, pool 2 (3 donors) (IL-2 2.5 ng/mL); test: as above; settings: 72 h
[18] = tested on: normal primary NK cells, pool 3 (3 donors) (IL-2 2.5 ng/mL); test: as above; settings: 72 h
[19] = tested on: NKL (IL-2 2.5 ng/mL); test: as above; settings: 72 h
[20] = tested on: KAI3 (IL-2 2.5 ng/mL); test: as above; settings: 72 h
[21] = tested on: normal primary NK cells, pool 1 (3 donors) (IL-2 2.5 ng/mL); test: as above; settings: 72 h
[22] = tested on: SNK-6 (IL-2 2.5 ng/mL); test: as above; settings: 72 h
[23] = tested on: NK-92 (IL-2 2.5 ng/mL); test: as above; settings: 72 h
[24] = tested on: NK-YS (IL-2 2.5 ng/mL); test: as above; settings: 72 h
[25] = tested on: YT (IL-2 2.5 ng/mL); test: as above; settings: 72 h
[26] = tested on: IMC-1 (IL-2 20 ng/mL); test: as above; settings: 72 h
[27] = tested on: normal NK cells expanded with K562-aAPC; test: as above; settings: 72 h; IL-2 2.5 ng/mL
Protocol: (§1)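 Drug sensitivity and resistance testing on K562-aAPC-expanded normal NK cells: 5 concentrations (10-fold steps over a 10,000-fold range), 72 h at 37 °C, viability by CellTiter-Glo normalised to DMSO and benzethonium chloride controls; DSS from the fitted curve.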

[28] = tested on: normal NK cells expanded with K562-aAPC; test: percent inhibition of viability; higher = more inhibition; settings: 72 h, IL-2 2.5 ng/mL
Protocol: as §1

c1ccc([C@H]2CN3CCSC3=N2)cc1 [Levamisole] (max concentration tested 10000 nM)
percent inhibition of viability [%]
Settings | 1 nM | 10 nM | 100 nM | 1000 nM | 10000 nM
[1] | -5.12 | 0.58 | -3.2 | -6.8 | -8.1
[2] | -4.85 | -2.06 | 13.8 | 4.07 | 3.16
[3] | -4.84 | -2.9 | -4.9 | -1.62 | -2.11
[4] | -4.91 | -0.55 | -10.1 | -7.03 | -10.1
[5] | -8.31 | -11.3 | -9.28 | -4.76 | -5.98
[6] | -11.2 | 0.14 | -6.49 | -4.45 | -10.6
[7] | -7.01 | -9.23 | -10.5 | -11.1 | -14.3
[8] | -7.56 | -2.22 | 4.92 | -0.77 | 2.81
[9] | 3.65 | 13.1 | -14.1 | -5.97 | -47.5
[10] | -11.8 | -18.9 | -18.4 | -24.3 | -19.2
[11] | -2.25 | -3.37 | -7.18 | -2.36 | -6.1
[12] | -3.76 | -6.23 | -5.31 | -5.18 | -4.44
[13] | 0.36 | -1.13 | -6.73 | -2.24 | -6.39
[28] | -4.29 | -11 | -5.79 | -6.94 | -11

Settings | drug sensitivity score
[14] | 0
[15] | 0
[16] | 0
[17] | 0
[18] | 0
[19] | 0
[20] | 0
[21] | 0
[22] | 0
[23] | 0
[24] | 0
[25] | 0
[26] | 0
[27] | 0
